The results in this text go back to US11390606B2, “Pyridazinone compounds and uses thereof” (Edgewise Therapeutics, Inc., priority 2018, dated 2022).

The target of this experiment is T1, skeletal myofibrils (Rabbit Psoas), myosin ATPase activity.
T1 construct: Rabbit Psoas Prep 11 (0.25 mg/mL)
The experiment can be described thus: Skeletal Myofibril ATPase Assay. The experiment is classed as biochemical. Particulars: skeletal myofibrils (Rabbit Psoas 0.25 mg/mL), PK/LDH-coupled NADH absorbance at 340 nm. How it is done:
Overview: Myosin ATPase activity is assessed by using a coupled reaction system, in which ADP generated by the myosin ATPase function is coupled to the disappearance of NADH through the pyruvate kinase/lactate dehydrogenase (PK-LDH) system. Myosin ATPase activity produces ADP, which is used as a substrate for PK to produce pyruvate and regenerate ATP. The pyruvate is then used as a substrate by LDH to oxidize NADH to NAD+. The rate of the reaction is monitored through the time-dependent disappearance of NADH using absorbance at 340 nm. Inhibition of ATPase activity by the assayed compounds is indicated by a reduced rate of NADH loss, relative to vehicle-treated controls, over the experimental time window. To assess the selectivity of the assayed compounds for skeletal myofibrils, the compounds are counter-screened in cardiac myofibrils.
Materials: The following stock solutions and reagents were used in the Skeletal Myofibril ATPase Assay:
Stock Solutions of pCa buffer. Combine PIPES, CaCl2, and EGTA solutions with 70 mL of water. Adjust pH to 7.0 and bring final volume to 100 mL.
Buffer A & Buffer B. Buffers were stored on ice until use.
Skeletal Myofibril ATPase Assay Procedure: BSA, ATP, NADH, PEP, and DTT solutions were thawed at room temperature, then transferred to ice. Pellet-frozen myofibrils were transferred with approximately twice the required volume into a sufficiently large tube and capped. Myofibrils were thawed by rolling in a water bath for approximately 15 min at room temperature and cooled on ice. Buffers A and B were prepared by adjusting volumes as necessary for required number of wells and stored on ice. 0.5 μL of the compounds to be assayed were added into wells. 25 μL of Buffer A was dispensed into the wells, followed by 25 μL of Buffer B. The wells were measured for absorbance at 340 nm, using a kinetic protocol in which the wells are read every 1.5-2 min for 45 min. The slope of the data was approximated by subtracting the minimum absorbance value from the maximum value for each well. This was accomplished either in the SoftMax Pro software or in a spreadsheet program such as Excel. Using GraphPad Prism 8.0, the data was normalized by assigning a value of 100% to the 1% DMSO vehicle wells. Typically, a normalized 0% value was simply assigned to a (Max−Min) value of 0. The normalized data was fit to a Four Parameter Logistic sigmoidal equation, constraining the bottom to be 0 or greater. Compounds of Table 1 to 4 were tested and results of the assay appear in Table 5 herein. A=IC50 is less than or equal to 10 μM; B=IC50 is greater than 10 μM and less than 100 μM; C=IC50 is greater than 100 μM.

Where only a bound is given, the exact number is not on record here.

For `O=c1ccc(-c2cnc(OCCOC(F)(F)F)nc2)nn1Cc1ccc(Cl)cc1` [Compound 2, 2-(4-chlorobenzyl)-6-(2-(2-(trifluoromethoxy)ethoxy)pyrimidin-5-yl)pyridazin-3(2H)-one], the concentration for half-maximal inhibition (IC50) was below 10 µM.

On to `O=c1ccc(-c2ccc(OC(F)F)nc2)nn1Cc1ccc(Cl)cc1` [Compound 19, 2-(4-chlorobenzyl)-6-(6-(difluoromethoxy)pyridin-3-yl)pyridazin-3(2H)-one], for which the IC50 is below 10 µM.

As for `O=c1ccc(-c2ccc(OCC(F)(F)F)nc2)nn1Cc1ccc(Cl)cc1` [Compound 11, 2-(4-chlorobenzyl)-6-(6-(2,2,2-trifluoroethoxy)pyridin-3-yl)pyridazin-3(2H)-one], the IC50 was below 10 µM.

`O=c1ccc(-c2cnc(NCCOC(F)F)nc2)nn1Cc1ccc(Cl)cc1` [Compound 46, 2-(4-chlorobenzyl)-6-(2-((2-(difluoromethoxy)ethyl)amino)pyrimidin-5-yl)pyridazin-3(2H)-one] showed an IC50 below 10 µM.

The compound `CN(C)S(=O)(=O)c1ccc(-c2ccc(=O)n(Cc3ccc(Cl)cc3)n2)cc1` [Compound 120, 4-(1-(4-chlorobenzyl)-6-oxo-1,6-dihydropyridazin-3-yl)-N,N-dimethyl-benzenesulfonamide] displayed an IC50 above 100 µM.

Compound `CN1CCC(F)(COc2ccc(-c3ccc(=O)n(Cc4ccc(Cl)cc4)n3)cn2)CC1` [Compound 28, 2-(4-chlorobenzyl)-6-(6-((4-fluoro-1-methylpiperidin-4-yl)methoxy)pyridin-3-yl)pyridazin-3(2H)-one] yielded an IC50 above 100 µM.

`O=c1ccc(-c2cnc(OCC(F)(F)F)nc2)nn1Cc1ccc(O)c(Cl)c1` [Compound 7, 2-(3-chloro-4-hydroxybenzyl)-6-(2-(2,2,2-trifluoroethoxy)pyrimidin-5-yl)pyridazin-3(2H)-one] yielded an IC50 below 10 µM.

For the compound `Cc1ccc(-c2ccc(=O)n(Cc3ccc(Cl)cc3)n2)cc1` [Compound 301, 2-(4-chlorobenzyl)-6-(p-tolyl)pyridazin-3(2H)-one], the IC50 is below 10 µM.

In turn, `[2H]C([2H])(c1ccccc1)n1nc(-c2cnc(OCC(F)(F)F)nc2)ccc1=O` [Compound 52, 2-(phenylmethyl-d2)-6-(2-(2,2,2-trifluoroethoxy)pyrimidin-5-yl)pyridazin-3(2H)-one] had an IC50 below 10 µM.

On to `O=c1ccc(-c2ccc(F)cc2)nn1Cc1ccc(Cl)cc1` [Compound 300, 2-(4-chlorobenzyl)-6-(4-fluorophenyl)pyridazin-3(2H)-one], for which the IC50 is below 10 µM.

`CN(C)S(=O)(=O)c1ccc(Cn2nc(-c3ccc(OC(F)F)cc3)ccc2=O)cc1` [Compound 118, 4-((3-(4-(difluoromethoxy)phenyl)-6-oxopyridazin-1(6H)-yl)methyl)-N,N-dimethyl-benzenesulfonamide]: the IC50 was above 100 µM.

The compound `O=c1ccc(-c2ccc(F)cc2)nn1Cc1ccc(F)cc1` [Compound 244, 2-(4-fluorobenzyl)-6-(4-fluorophenyl)pyridazin-3(2H)-one] yielded a 50% inhibitory concentration (IC50) of 10 to 100 µM.

Take `O=c1ccc(-c2ccc(F)cc2)nn1Cc1cccc(F)c1` [Compound 242, 2-(3-fluorobenzyl)-6-(4-fluorophenyl)pyridazin-3(2H)-one]: the IC50 is below 10 µM.

Consider `O=c1ccc(-c2cnc(OCC(F)(F)F)nc2)nn1Cc1ccccc1` [Compound 31, 2-benzyl-6-(2-(2,2,2-trifluoroethoxy)pyrimidin-5-yl)pyridazin-3(2H)-one], for which the half-inhibitory concentration (IC50) was below 10 µM.

As to `COc1ccc(Cn2nc(-c3ccc(F)cc3)ccc2=O)cc1` [Compound 240, 6-(4-fluorophenyl)-2-(4-methoxybenzyl)pyridazin-3(2H)-one], the concentration for half-maximal inhibition (IC50) fell in the range of 10 to 100 µM.

`O=c1ccc(-c2ccc(Cl)nc2)nn1Cc1ccc(Cl)cc1` [Compound 304, 2-(4-chlorobenzyl)-6-(6-chloropyridin-3-yl)pyridazin-3(2H)-one]: the IC50 is below 10 µM.

On to `O=c1ccc(-c2cnc(NC3CC3)nc2)nn1Cc1ccc(Cl)cc1` [Compound 8, 2-(4-chlorobenzyl)-6-(2-(cyclopropylamino)pyrimidin-5-yl)pyridazin-3(2H)-one], for which the half-maximal inhibitory concentration (IC50) was below 10 µM.

`O=c1ccc(-c2cnc(N3CCCC3)nc2)nn1Cc1ccc(F)cc1F` [Compound 23, 2-(2,4-difluorobenzyl)-6-(2-(pyrrolidin-1-yl)pyrimidin-5-yl)pyridazin-3(2H)-one] had a half-inhibitory concentration (IC50) below 10 µM.

In turn, `NC(=O)c1ccc(-c2ccc(=O)n(Cc3ccc(Cl)cc3)n2)cc1` [Compound 114, 4-(1-(4-chlorobenzyl)-6-oxo-1,6-dihydropyridazin-3-yl)benzamide] registered an IC50 of 10 to 100 µM.

`Cc1cccc(Cn2nc(-c3ccc(Cl)cc3)ccc2=O)c1` [Compound 314, 6-(4-chlorophenyl)-2-(3-methylbenzyl)pyridazin-3(2H)-one] returned a 50% inhibitory concentration (IC50) below 10 µM.

`COCCOc1ccc(-c2ccc(=O)n(Cc3ccc(Cl)cc3)n2)cc1` [Compound 106, 2-(4-chlorobenzyl)-6-(4-(2-methoxyethoxy)phenyl)pyridazin-3(2H)-one] yielded an IC50 below 10 µM.

Compound `CC1CCC(=O)N1c1ncc(-c2ccc(=O)n(Cc3ccc(Cl)cc3)n2)cn1` (centres unmarked) [Compound 47, 2-(4-chlorobenzyl)-6-(2-(2-methyl-5-oxopyrrolidin-1-yl)pyrimidin-5-yl)pyridazin-3(2H)-one] came in with an IC50 below 10 µM.

Compound `O=c1ccc(-c2ccc(OCC(F)(F)F)cc2)nn1Cc1ccc(Cl)cc1` [Compound 101, 2-(4-chlorobenzyl)-6-(4-(2,2,2-trifluoroethoxy)phenyl)pyridazin-3(2H)-one] yielded a concentration for half-maximal inhibition (IC50) below 10 µM.

The compound `COc1ccc(-c2ccc(=O)n(Cc3ccc(Cl)cc3)n2)cc1` [Compound 212, 2-(4-chlorobenzyl)-6-(4-methoxyphenyl)pyridazin-3(2H)-one] had a 50% inhibitory concentration (IC50) below 10 µM.

`O=c1ccc(-c2cnc(OCC(F)(F)F)nc2)nn1Cc1ccc(CO)cc1` [Compound 48, 2-(4-(hydroxymethyl)benzyl)-6-(2-(2,2,2-trifluoroethoxy)pyrimidin-5-yl)pyridazin-3(2H)-one] displayed an IC50 below 10 µM.

Take `CNC(=O)c1ccc(-c2ccc(=O)n(Cc3ccc(Cl)cc3)n2)cc1` [Compound 113]: the IC50 was in the range of 10 to 100 µM.

For the compound `O=c1ccc(-c2ccc(OC(F)(F)F)nc2)nn1Cc1ccc(Cl)cc1` [Compound 13, 2-(4-chlorobenzyl)-6-(6-(trifluoromethoxy)pyridin-3-yl)pyridazin-3(2H)-one], the half-inhibitory concentration (IC50) is below 10 µM.

Regarding `O=c1ccc(-c2cnc(N3CC(OC(F)(F)F)C3)nc2)nn1Cc1ccc(Cl)cc1` [Compound 18, 2-(4-chlorobenzyl)-6-(2-(3-(trifluoromethoxy)azetidin-1-yl)pyrimidin-5-yl)pyridazin-3(2H)-one], the IC50 is below 10 µM.

For `O=c1ccc(-c2ccc(OC(F)F)nc2)nn1Cc1ccc(Cl)c(F)c1` [Compound 15, 2-(4-chloro-3-fluorobenzyl)-6-(6-(difluoromethoxy)pyridin-3-yl)pyridazin-3(2H)-one], the IC50 was below 10 µM.

In turn, `O=c1ccc(-c2ccc(Cl)cc2)nn1Cc1cccc(F)c1` [Compound 317, 6-(4-chlorophenyl)-2-(3-fluorobenzyl)pyridazin-3(2H)-one] returned an IC50 below 10 µM.

With `O=c1ccc(-c2ccc(Cl)cc2)nn1Cc1ccc(Cl)cc1` [Compound 303, 2-(4-chlorobenzyl)-6-(4-chlorophenyl)pyridazin-3(2H)-one], the IC50 was below 10 µM.

Compound `O=c1ccc(-c2ccc3scnc3c2)nn1Cc1ccc(Cl)cc1` [Compound 117, 6-(benzo[d]thiazol-5-yl)-2-(4-chlorobenzyl)pyridazin-3(2H)-one] registered an IC50 above 100 µM.

`O=c1ccc(-c2cnc(N3CC(F)(F)C3)nc2)nn1Cc1ccc(Cl)cc1` [Compound 44, 2-(4-chlorobenzyl)-6-(2-(3,3-difluoroazetidin-1-yl)pyrimidin-5-yl)pyridazin-3(2H)-one] gave a half-inhibitory concentration (IC50) below 10 µM.

Regarding `O=c1ccc(-c2cnc(OCCOC(F)F)nc2)nn1Cc1ccc(Cl)cc1` [Compound 1, 2-(4-chlorobenzyl)-6-(2-(2-(difluoromethoxy)ethoxy)pyrimidin-5-yl)pyridazin-3(2H)-one], the IC50 was below 10 µM.

The compound `Cc1ccc(Cn2nc(-c3ccc(Cl)cc3)ccc2=O)cc1` [Compound 311, 6-(4-chlorophenyl)-2-(4-methylbenzyl)pyridazin-3(2H)-one] gave a concentration for half-maximal inhibition (IC50) below 10 µM.

As a reminder, the IC50 is the midpoint of a concentration-inhibition curve. High values mean weaker potency in that assay, low ones greater potency in that assay.
